Assay [1] deals with ASIC containing channel activity in U87-MG cells. Nature of the assay: Single channel recording, outside-out patches from U87-MG cells. In kind it is cell-based, human. The settings on record: 100 μM amiloride. As to the method: FIGS. 23A and B show single channel records of ASIC-containing channel activity in cell attached (FIG. 23A) and outside-out patches (FIG. 23B) from U87-MG cells.
Single channel recording of ASIC containing channel activity in both cell-attached and outside-out patches from U-87MG cells are shown in FIGS. 23A and B, respectively. For cell-attached patches, the pipette solution contained RPMI 1640, matching the external bath solution used for all whole-cell clamped records. For outside-out patches the pipette solution contained (in mM) K-gluconate, 100; KCl, 30; NaCl, 10; HEPES, 20; EGTA, 0.5; ATP, 4; pH 7.2. Membrane potentials for cell-attached patches were determined as the applied potential plus the membrane potential of the cell that was measured in the whole-cell configuration as −60 mV using the pipette solution for outside-out patches. The membrane potential for outside-out patches was the equilibrium potential for sodium plus the applied potential. The average single channel conductance in the cell-attached configuration was 5.7±0.5 pS. This average conductance was calculated from each of the clamp potentials. This was compatible with the observed whole-cell currents. The kinetics of channel opening and closing were relatively slow (on the order of 0.1 to 1 s), consistent to what has been observed for ASIC-like channels in bilayers (FIG. 23A).

A further assay addresses T1, ASIC2 (Homo sapiens, UniProt Q16515).
T1 sequence (Q16515 1-512): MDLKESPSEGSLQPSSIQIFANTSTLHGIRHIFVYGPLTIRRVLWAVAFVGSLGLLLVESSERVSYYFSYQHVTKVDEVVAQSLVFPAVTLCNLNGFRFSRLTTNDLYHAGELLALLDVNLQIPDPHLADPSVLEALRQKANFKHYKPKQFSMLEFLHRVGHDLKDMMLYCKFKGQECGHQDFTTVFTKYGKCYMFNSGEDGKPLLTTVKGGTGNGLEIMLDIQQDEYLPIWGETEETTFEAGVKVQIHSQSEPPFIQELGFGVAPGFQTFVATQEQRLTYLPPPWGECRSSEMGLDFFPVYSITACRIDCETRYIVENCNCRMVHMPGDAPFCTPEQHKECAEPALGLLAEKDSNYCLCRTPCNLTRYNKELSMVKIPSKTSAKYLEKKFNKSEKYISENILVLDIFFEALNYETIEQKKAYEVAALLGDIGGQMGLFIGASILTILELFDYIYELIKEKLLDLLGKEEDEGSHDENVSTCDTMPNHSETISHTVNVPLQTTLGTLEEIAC
Kind of assay: ASIC2 in planar lipid bilayers. The format is biochemical. From the text: Membrane potential was held at −60 mV, and the pHo was step decreased to 4.0 for 10 s, and then returned to 7.4 for 30 s before repeating the sequence.

Take `N=C(N)NC(=O)c1nc(Cl)c(N)nc1N` [amiloride]: the inhibition of channels entry in assay [1] was “completely inhibited”. As for Psalmotoxin 1 [PcTX1], in the assay with ASIC2, the “block of inward currents” value is on record as “not ASIC2”.
